Laboratory results from US11382956B2, “Amylin analogues” (Zealand Pharma A/S, priority 2016, dated 2022).
pEC50: −log10 of the molar value. Numbered stars: 1 amine (or outer) side, 2 acyl side, 3 side chain; on linkers, the order of the positions; unused ones are H or OH. Bridge positions count the residues as written; N and C are the ends. Square brackets hold non-standard residues; d marks the D form. Peptide text beside a SMILES is read from it. * marks the point of attachment. C20 diacid = O=C(O)CCCCCCCCCCCCCCCCCCC(=O)*; γGlu = O=C(O)[C@H](CCC(=O)[*:2])N[*:1]; Hyp = O=C(O)[C@@H]1C[C@@H](O)CN1; NMeI = CC[C@H](C)[C@H](NC)C(=O)O; Aad = N[C@@H](CCCC(=O)O)C(=O)O; Orn = NCCC[C@H](N)C(=O)O; Sar = CNCC(=O)O

How the values were obtained:
[1] = target: T1, recombinant human amylin 3 receptor (hAMYR3) (Homo sapiens, UniProt O60896+P30988); assay: hAMYR3 cAMP assay (AlphaScreen) in 1321N1 cells; type: cell-based; settings: cAMP formation, 45 min stimulation
T1 construct: host or cells: human astrocytoma cell line 1321N1
T1 sequence (P30988 25-474): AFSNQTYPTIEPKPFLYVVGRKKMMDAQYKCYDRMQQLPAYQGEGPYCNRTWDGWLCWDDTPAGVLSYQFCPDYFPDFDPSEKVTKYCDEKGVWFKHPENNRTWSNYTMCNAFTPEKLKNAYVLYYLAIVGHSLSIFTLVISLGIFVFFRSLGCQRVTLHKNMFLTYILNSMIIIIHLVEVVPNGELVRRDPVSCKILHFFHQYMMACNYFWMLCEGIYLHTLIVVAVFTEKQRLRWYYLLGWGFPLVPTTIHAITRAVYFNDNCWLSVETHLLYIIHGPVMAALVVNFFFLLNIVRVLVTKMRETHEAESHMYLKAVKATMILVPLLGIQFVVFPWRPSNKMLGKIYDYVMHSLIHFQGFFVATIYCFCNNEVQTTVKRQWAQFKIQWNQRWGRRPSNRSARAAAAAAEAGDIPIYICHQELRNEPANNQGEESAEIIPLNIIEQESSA
T1 sequence (O60896 24-148 partner): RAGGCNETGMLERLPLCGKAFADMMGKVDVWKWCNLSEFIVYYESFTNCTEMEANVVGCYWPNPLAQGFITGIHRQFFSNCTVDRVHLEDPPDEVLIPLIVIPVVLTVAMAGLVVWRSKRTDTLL
Method in brief: (§1)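 EC50 values come from curve fits over at least 7 peptide concentrations, with cAMP read by AlphaScreen competition after 1 h in the dark. Cells were 1321N1 lines carrying human calcitonin receptor, with RAMP3 co-expressed for AMY3, treated 45 min at room temperature in the presence of IBMX.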

[2] = Pharmacokinetic (PK) profiling in rats; settings: male, Sprague Dawley, plasma; rat, single sc bolus 30 nmol/kg; read-out: in vivo half life t1/2 (plasma terminal elimination half-life) (converted)
Experimental: Sprague Dawley male rats were given a single subcutaneous (sc) bolus of each peptide to be tested, as specified below.
30 nmol/kg doses of compound were administered. Blood samples were drawn from the tail vein prior to dosing and at 24 and 96 hours after dosing. The rats were euthanized immediately after the last blood sampling by concussion and cervical dislocation.
The dosing vehicle used for each test peptide was a mannitol-containing histidine buffer (pH 7.0). Plasma samples were analyzed after precipitation with ethanol by liquid chromatography mass spectrometry (LC-MS/MS). Mean plasma concentrations were used for calculation of the pharmacokinetic parameters.
Plasma terminal elimination half-life (t1/2) was determined as In(2)/λz, where λz is the magnitude of the slope of the log linear regression of the log concentration versus time profile during the terminal phase.

[3] = Assessment of chemical stability in 40 mM buffers at 40° C. (RP-HPLC); type: physicochemical; settings: 1 mg/mL; for % degradation after 72 h at 40° C. pH4 acetate: acetate buffer pH 4, 72 h; for % degradation after 14 days at 40° C. pH4 acetate: acetate buffer pH 4, 14 days; for % degradation after 72 h at 40° C. pH6 phosphate: phosphate buffer pH 6, 72 h; for % degradation after 14 days at 40° C. pH6 phosphate: phosphate buffer pH 6, 14 days; for % degradation after 72 h at 40° C. pH7 phosphate: phosphate buffer pH 7, 72 h; for % degradation after 14 days at 40° C. pH7 phosphate: phosphate buffer pH 7, 14 days
Method in brief: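 Degradation is the main-peak area-% at each time point minus that at t=0, measured by C8 reversed-phase HPLC (TFA/acetonitrile/water gradient, 220 nm). Incubation at 40° C for 3 or 14 days, 1 mg/mL peptide in 40 mM buffer at pH 4, 6 or 7.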

[4] = Assessment of physical stability: fibril formation by Thioflavin T fluorescence; type: physicochemical; set-up: key: FND = fibrillation not detected; FD = fibrillation detected; settings: 1 mg/mL peptide; for Fibrillation (in buffer) pH4 acetate: 50 mM acetate buffer pH 4.0, 96 hours at 40° C.; for Fibrillation (in buffer) pH7 histidine: 50 mM histidine buffer pH 7.0, 96 hours at 40° C.; for Fibrillation (in buffer) pH7 phosphate: 50 mM phosphate buffer pH 7.0, 96 hours at 40° C.
Method in brief: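 Fibrillation detected (FD) means a significant rise in ThT fluorescence over 96 hours at 40° C, read at 10 min intervals each preceded by 300 s automixing. Samples: 1 mg/mL peptide, 40 μM ThT, in 50 mM phosphate or histidine (pH 7.0) or acetate (pH 4.0), triplicate.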

[5] = target: T2, recombinant human calcitonin receptor (hCT-R) (Homo sapiens, UniProt P30988); assay: hCT-R cAMP assay (AlphaScreen) in 1321N1 cells; type: cell-based; settings: cAMP formation, 45 min stimulation
T2 construct: host or cells: human astrocytoma cell line 1321N1
T2 sequence (P30988 25-474): T1 sequence (P30988 25-474)
Method in brief: as §1

[6] = Effect on acute food intake and body weight in normal Sprague Dawley rats; type: in vivo, Sprague Dawley (SD) rats; settings: Dose: 30 nmol/kg sc, vehicle-corrected

| SMILES | pEC50 [1] | half-life [2] [h] | % degradation after 72 h at 40° C. pH4 acetate [3] [%] | % degradation after 14 days at 40° C. pH4 acetate [3] [%] | % degradation after 72 h at 40° C. pH6 phosphate [3] [%] | % degradation after 14 days at 40° C. pH6 phosphate [3] [%] | % degradation after 72 h at 40° C. pH7 phosphate [3] [%] | % degradation after 14 days at 40° C. pH7 phosphate [3] [%] | Fibrillation (in buffer) pH4 acetate [4] | Fibrillation (in buffer) pH7 histidine [4] | Fibrillation (in buffer) pH7 phosphate [4] | pEC50 [5] | Body weight reduction in % at 48 h [6] [%] | Food intake reduction in % at 48 h [6] [%] |
| --- | --- | --- | --- | --- | --- | --- | --- | --- | --- | --- | --- | --- | --- | --- |
| CC[C@H](C)[C@@H](C(=O)N[C@@H](CC(C)C)C(=O)N[C@@H](CO)C(=O)N[C@@H](CO)C(=O)N[C@H](C(=O)N[C@@H](CCC(=O)O)C(=O)N[C@H](C(=O)NCC(=O)N[C@@H](CO)C(=O)N[C@@H](CC(N)=O)C(=O)N[C@H](C(=O)N1C[C@H](O)C[C@H]1C(N)=O)[C@@H](C)O)C(C)C)[C@@H](C)O)N(C)C(=O)[C@H](C)NC(=O)CN(C)C(=O)[C@H](Cc1ccccc1)NC(=O)[C@H](CO)NC(=O)[C@H](CO)NC(=O)[C@H](CCCNC(=N)N)NC(=O)[C@H](CCC(N)=O)NC(=O)[C@H](CC(C)C)NC(=O)[C@H](Cc1ccccc1)NC(=O)[C@H](Cc1c[nH]cn1)NC(=O)[C@H](C)NC(=O)[C@H](CC(C)C)NC(=O)[C@H](CCCNC(=N)N)NC(=O)[C@H](CCC(=O)O)NC(=O)[C@@H](NC(=O)[C@H](C)NC(=O)[C@@H]1CCCNC(=O)C[C@H](NC(=O)[C@H](CCCNC(=N)N)NC(=O)CC[C@H](NC(=O)CC[C@H](NC(=O)CCCCCCCCCCCCCCCCCCC(=O)O)C(=O)O)C(=O)O)C(=O)NCC(=O)N[C@@H]([C@@H](C)O)C(=O)N[C@@H](C)C(=O)N[C@@H]([C@@H](C)O)C(=O)N1)[C@@H](C)O [Compound 4, [19CD]-isoGlu-isoGlu-RD()GTAT-Orn()-ATERLAHFLQRSSF-Gly(Me)-A-Ile(Me)-LSSTEVGSNT-Hyp-NH2] ({C20 diacid-γGlu-γGlu}-RDGTAT[Orn]ATERLAHFLQRSSF[Sar]A[NMeI]LSSTEVGSNT[Hyp]-NH2; lactam 2-7) | 10.04 | 31.9 | <1 | 1.6 | <1 | <1 | <1 | 6.4 | FND | FND | FND | 9.80 | 4.6 | 34 |
| CC[C@H](C)[C@@H](C(=O)N[C@@H](CC(C)C)C(=O)N[C@@H](CO)C(=O)N[C@@H](CO)C(=O)N[C@H](C(=O)N[C@@H](CCC(=O)O)C(=O)N[C@H](C(=O)NCC(=O)N[C@@H](CO)C(=O)N[C@@H](CC(N)=O)C(=O)N[C@H](C(=O)N1C[C@H](O)C[C@H]1C(N)=O)[C@@H](C)O)C(C)C)[C@@H](C)O)N(C)C(=O)[C@H](C)NC(=O)CN(C)C(=O)[C@H](Cc1ccccc1)NC(=O)[C@H](CO)NC(=O)[C@H](CO)NC(=O)[C@H](CCCNC(=N)N)NC(=O)[C@H](CCC(N)=O)NC(=O)[C@H](CC(C)C)NC(=O)[C@H](Cc1ccccc1)NC(=O)[C@H](Cc1c[nH]cn1)NC(=O)[C@H](C)NC(=O)[C@H](CC(C)C)NC(=O)[C@H](CCCNC(=N)N)NC(=O)[C@H](CCC(=O)O)NC(=O)[C@@H](NC(=O)[C@H](C)NC(=O)[C@@H]1CCCCNC(=O)C[C@H](NC(=O)[C@H](CCCNC(=N)N)NC(=O)CC[C@H](NC(=O)CCCCCCCCCCCCCCCCCCC(=O)O)C(=O)O)C(=O)NCC(=O)N[C@@H]([C@@H](C)O)C(=O)N[C@@H](C)C(=O)N[C@@H]([C@@H](C)O)C(=O)N1)[C@@H](C)O [Compound 18, [19CD]-isoGlu-RD()GTATK()ATERLAHFLQRSSF-Gly(Me)-A-Ile(Me)-LSSTEVGSNT-Hyp-NH2] ({C20 diacid-γGlu}-RDGTATKATERLAHFLQRSSF[Sar]A[NMeI]LSSTEVGSNT[Hyp]-NH2; lactam 2-7) | 10.51 | 30.1 | <1 | <1 | <1 | 1.0 | <1 | 1.9 | FND | FND | FND | 10.07 | 10 | 58 |
| CC[C@H](C)[C@@H](C(=O)N[C@@H](CC(C)C)C(=O)N[C@@H](CO)C(=O)N[C@@H](CO)C(=O)N[C@H](C(=O)N[C@@H](CCC(=O)O)C(=O)N[C@H](C(=O)NCC(=O)N[C@@H](CO)C(=O)N[C@@H](CC(N)=O)C(=O)N[C@H](C(=O)N1C[C@H](O)C[C@H]1C(N)=O)[C@@H](C)O)C(C)C)[C@@H](C)O)N(C)C(=O)[C@H](C)NC(=O)CN(C)C(=O)[C@H](Cc1ccccc1)NC(=O)[C@H](CO)NC(=O)[C@H](CO)NC(=O)[C@H](CCCNC(=N)N)NC(=O)[C@H](CCC(N)=O)NC(=O)[C@H](CC(C)C)NC(=O)[C@H](Cc1ccccc1)NC(=O)[C@H](CCCC(=O)O)NC(=O)[C@H](C)NC(=O)[C@H](CC(C)C)NC(=O)[C@H](CCCNC(=N)N)NC(=O)[C@H](CCC(=O)O)NC(=O)[C@@H](NC(=O)[C@H](C)NC(=O)[C@@H]1CCCNC(=O)C[C@H](NC(=O)[C@H](CCCNC(=N)N)NC(=O)CC[C@H](NC(=O)CCCCCCCCCCCCCCCCCCC(=O)O)C(=O)O)C(=O)NCC(=O)N[C@@H]([C@@H](C)O)C(=O)N[C@@H](C)C(=O)N[C@@H]([C@@H](C)O)C(=O)N1)[C@@H](C)O [Compound 20, [19CD]-isoGlu-RD()GTAT-Orn()-ATERLA-Aad-FLQRSSF-Gly(Me)-A-Ile(Me)-LSSTEVGSNT-Hyp-NH2] ({C20 diacid-γGlu}-RDGTAT[Orn]ATERLA[Aad]FLQRSSF[Sar]A[NMeI]LSSTEVGSNT[Hyp]-NH2; lactam 2-7) | 11.52 | 31.1 | 1.0 | – | 1.3 | <1 | 2.0 | 3.7 | FD | FND | FND | 11.05 | 7.8 | 49 |
